This note sets out measurements from US20250034122A1, “SUBSTITUTED N-CYANOPYRROLIDINES WITH ACTIVITY AS USP30 INHIBITORS” (MISSION THERAPEUTICS LIMITED, priority 2021, published 2025).

The test deals with USP30 (Homo sapiens (Human), UniProt Q70CQ3). Kind of test: USP30 biochemical IC50 assay (fluorescence polarisation). The note with it: geomean; USP30 4 nM, 30 min pre-incubation, TAMRA-peptide-ubiquitin FP substrate.

pIC50: −log10 of the molar value.

Chain of USP30 (Q70CQ3 57-517): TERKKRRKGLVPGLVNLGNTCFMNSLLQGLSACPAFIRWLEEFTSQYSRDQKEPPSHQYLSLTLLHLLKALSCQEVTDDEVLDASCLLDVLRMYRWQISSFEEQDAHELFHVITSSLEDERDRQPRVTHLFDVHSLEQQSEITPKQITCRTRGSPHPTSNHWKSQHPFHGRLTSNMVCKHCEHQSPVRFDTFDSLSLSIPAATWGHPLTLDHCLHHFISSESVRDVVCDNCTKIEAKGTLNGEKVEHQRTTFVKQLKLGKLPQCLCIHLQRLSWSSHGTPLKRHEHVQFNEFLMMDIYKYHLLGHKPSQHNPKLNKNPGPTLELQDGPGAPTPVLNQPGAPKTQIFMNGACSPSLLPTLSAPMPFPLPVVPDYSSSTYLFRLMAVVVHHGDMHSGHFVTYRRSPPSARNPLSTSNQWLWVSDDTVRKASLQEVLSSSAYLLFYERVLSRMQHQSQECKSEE
Protocol: Dilution plates were prepared at 21 times the final concentration (2100 μM for a final concentration of 100 μM) in 50% DMSO in a 96-well polypropylene V-bottom plate (Greiner #651201). A typical 8-point dilution series would be 100, 30, 10, 3, 1, 0.3, 0.1, 0.03 μM final. Reactions were performed in duplicate in black 384 well plates (small volume, Greiner 784076) in a final reaction volume of 21 μl.
Either lpl of 50% DMSO or diluted compound was added to the plate. USP30 (Boston Biochem #E582) was diluted in reaction buffer (40 mM Tris, pH 7.5, 0.005% Tween 20, 0.5 mg/ml BSA, 5 mM beta-mercaptoethanol) to achieve a final assay concentration of 4 nM, and 10 μl of diluted USP30 was added to the compound. Enzyme and compound were incubated for 30 min at room temp. Reactions were initiated by the addition of 50 nM of TAMRA labelled peptide linked to ubiquitin via an isopeptide bond as fluorescence polarisation substrate. Reactions were read immediately after addition of substrate and following a 2-hour incubation at room temperature. Readings were performed on a Pherastar Plus (BMG Labtech). λ Excitation 540 nm; λ Emission 590 nm.

Broadly, the pIC50 is the negative decadic logarithm of the IC50, by convention in mol/L. As to `N#CN1C[C@H](NC(=O)N2CCC(c3cccc(OC(F)(F)F)c3)C2)C[C@H]1Cn1cccn1` (stereo partly shown) [Example 38], the pIC50 is 6.68.

`N#CN1C[C@H](NC(=O)c2nnc(-c3cccc(OC(F)(F)F)c3)o2)C[C@H]1Cn1ccnn1` [Example 43, N-((3R,5S)-5-((1H-1,2,3-Triazol-1-yl)methyl)-1-cyanopyrrolidin-3-yl)-5-(3-(trifluoromethoxy)phenyl)-1,3,4-oxadiazole-2-carboxamide] had a pIC50 of 7.92.

Turning to `N#CN1C[C@H](NC(=O)c2ccc(-c3cccc4[nH]ncc34)nc2)C[C@H]1Cn1cccn1` [Example 52, N-((3R,5S)-5-((1H-Pyrazol-1-yl)methyl)-1-cyanopyrrolidin-3-yl)-6-(1H-indazol-4-yl)nicotinamide], the pIC50 was 7.82.

The compound `N#CN1C[C@H](NC(=O)c2ncc(-c3cccc(OC(F)(F)F)c3)o2)C[C@H]1Cn1ccnn1` [Example 4, N-((3R,5S)-5-((1H-1,2,3-Triazol-1-yl)methyl)-1-cyanopyrrolidin-3-yl)-5-(3-(trifluoromethoxy)phenyl)oxazole-2-carboxamide] showed a pIC50 of 8.52.

Turning to `N#CN1C[C@H](NC(=O)N2CCC(c3cccc(OC(F)(F)F)c3)C2)C[C@H]1Cn1cccn1` (single isomer, unassigned) [Example 37], the pIC50 was 6.92.

For `CCCc1ccc(OC(F)(F)F)cc1-c1nnc(C(=O)N[C@@H]2C[C@@H](Cn3ccnn3)N(C#N)C2)o1` [Example 48, N-((3R,5S)-5-((1H-1,2,3-Triazol-1-yl)methyl)-1-cyanopyrrolidin-3-yl)-5-(2-propyl-5-(trifluoromethoxy)phenyl)-1,3,4-oxadiazole-2-carboxamide], the pIC50 is 8.30.

`Cc1ccn(C[C@@H]2C[C@@H](NC(=O)c3ncc(-c4cccc(OC(F)(F)F)c4)o3)CN2C#N)n1` [Example 28, N-((3R,5S)-1-Cyano-5-((3-methyl-1H-pyrazol-1-yl)methyl)pyrrolidin-3-yl)-5-(3-(trifluoromethoxy)phenyl)oxazole-2-carboxamide] showed a pIC50 of 8.00.

For `N#CN1C[C@H](NC(=O)c2ncc(-c3ccc(F)c(OC(F)(F)F)c3)o2)C[C@H]1Cn1ccnn1` [Example 39, N-((3R,5S)-5-((1H-1,2,3-Triazol-1-yl)methyl)-1-cyanopyrrolidin-3-yl)-5-(4-fluoro-3-(trifluoromethoxy)phenyl)oxazole-2-carboxamide], the pIC50 was 8.10.

`N#CN1C[C@H](NC(=O)c2nnc(-c3cc(OC(F)(F)F)ccc3OC3CC3)o2)C[C@H]1Cn1ccnn1` [Example 15, N-((3R,5S)-5-((1H-1,2,3-Triazol-1-yl)methyl)-1-cyanopyrrolidin-3-yl)-5-(2-cyclopropoxy-5-(trifluoromethoxy)phenyl)-1,3,4-oxadiazole-2-carboxamide] had a pIC50 of 8.10.

`N#Cc1cnc(N2CCC2)c(-c2nnc(C(=O)N[C@@H]3C[C@@H](Cn4ccnn4)N(C#N)C3)o2)c1` [Example 40, N-((3R,5S)-5-((1H-1,2,3-Triazol-1-yl)methyl)-1-cyanopyrrolidin-3-yl)-5-(2-(azetidin-1-yl)-5-cyanopyridin-3-yl)-1,3,4-oxadiazole-2-carboxamide] had a pIC50 of 7.92.

On to `N#Cc1ccc(C2CC2)c(-c2cnc(C(=O)N[C@@H]3C[C@@H](Cn4ccnn4)N(C#N)C3)o2)c1` [Example 9, N-((3R,5S)-5-((1H-1,2,3-Triazol-1-yl)methyl)-1-cyanopyrrolidin-3-yl)-5-(5-cyano-2-cyclopropylphenyl)oxazole-2-carboxamide], for which the pIC50 is 8.70.

`Cn1ncc2cc(-c3ccc(C(=O)N[C@@H]4C[C@@H](Cn5ccnn5)N(C#N)C4)c(F)c3)ccc21` [Example 35, N-((3R,5S)-5-((1H-1,2,3-Triazol-1-yl)methyl)-1-cyanopyrrolidin-3-yl)-2-fluoro-4-(1-methyl-1H-indazol-5-yl)benzamide]: the pIC50 was 7.57.

`Cn1ncc2cc(-c3ccc(C(=O)N[C@@H]4C[C@@H](Cn5cccn5)N(C#N)C4)c(F)c3)ccc21` [Example 34, N-((3R,5S)-5-((1H-Pyrazol-1-yl)methyl)-1-cyanopyrrolidin-3-yl)-2-fluoro-4-(1-methyl-1H-indazol-5-yl)benzamide] had a negative-log IC50 (pIC50) of 7.36.

`N#CN1C[C@H](NC(=O)c2nnc(-c3cc(OC(F)(F)F)ccc3C3CC3)o2)C[C@H]1Cn1cncn1` [Example 47, N-((3R,5S)-5-((1H-1,2,4-Triazol-1-yl)methyl)-1-cyanopyrrolidin-3-yl)-5-(2-cyclopropyl-5-(trifluoromethoxy)phenyl)-1,3,4-oxadiazole-2-carboxamide] gave a pIC50 of 8.30.

On to `N#CN1C[C@H](NC(=O)c2nc(-c3cc(OC(F)(F)F)ccc3C3CC3)no2)C[C@H]1Cn1ccnn1` [Example 50, N-((3R,5S)-5-((1H-1,2,3-Triazol-1-yl)methyl)-1-cyanopyrrolidin-3-yl)-3-(2-cyclopropyl-5-(trifluoromethoxy)phenyl)-1,2,4-oxadiazole-5-carboxamide], for which the pIC50 is 8.30.

With `N#CN1C[C@H](NC(=O)c2nnc(-c3cc(OC(F)(F)F)ccc3Cl)o2)C[C@H]1Cn1ccnn1` [Example 42, N-((3R,5S)-5-((1H-1,2,3-Triazol-1-yl)methyl)-1-cyanopyrrolidin-3-yl)-5-(2-chloro-5-(trifluoromethoxy)phenyl)-1,3,4-oxadiazole-2-carboxamide], the pIC50 was 8.22.

The compound `N#CN1C[C@H](NC(=O)c2nnc(-c3cc(OC(F)(F)F)ccc3C3CC3)o2)C[C@H]1Cn1cnnc1` [Example 49, N-((3R,5S)-5-((4H-1,2,4-Triazol-4-yl)methyl)-1-cyanopyrrolidin-3-yl)-5-(2-cyclopropyl-5-(trifluoromethoxy)phenyl)-1,3,4-oxadiazole-2-carboxamide] gave a pIC50 of 8.22.

In turn, `N#CN1C[C@H](NC(=O)c2nnc(-c3cc(OC(F)(F)F)ccc3C3CC3)o2)C[C@H]1Cn1nccn1` [Example 45, N-((3R,5S)-5-((2H-1,2,3-Triazol-2-yl)methyl)-1-cyanopyrrolidin-3-yl)-5-(2-cyclopropyl-5-(trifluoromethoxy)phenyl)-1,3,4-oxadiazole-2-carboxamide] showed a pIC50 of 8.15.

The compound `N#CN1C[C@H](NC(=O)c2cc(-c3cccc(OC(F)(F)F)c3)ccn2)C[C@H]1Cn1ccnn1` [Example 25, N-((3R,5S)-5-((1H-1,2,3-Triazol-1-yl)methyl)-1-cyanopyrrolidin-3-yl)-4-(3-(trifluoromethoxy)phenyl)picolinamide] had a pIC50 of 8.05.

As for `N#CN1C[C@H](NC(=O)c2nnc(-c3cc(OC(F)(F)F)ccc3C3CC3)o2)C[C@H]1Cn1cccn1` [Example 44, N-((3R,5S)-5-((1H-Pyrazol-1-yl)methyl)-1-cyanopyrrolidin-3-yl)-5-(2-cyclopropyl-5-(trifluoromethoxy)phenyl)-1,3,4-oxadiazole-2-carboxamide], the pIC50 is 8.30.

Take `N#CN1C[C@H](NC(=O)c2ncc(-c3cccc(OC(F)(F)F)c3)o2)C[C@H]1Cn1cccn1` [Example 27, N-((3R,5S)-5-((1H-Pyrazol-1-yl)methyl)-1-cyanopyrrolidin-3-yl)-5-(3-(trifluoromethoxy)phenyl)oxazole-2-carboxamide]: the pIC50 is 8.05.

In turn, `CCc1cccc(-c2cnc(C(=O)N[C@@H]3C[C@@H](Cn4ccnn4)N(C#N)C3)o2)c1` [Example 11, N-((3R,5S)-5-((1H-1,2,3-Triazol-1-yl)methyl)-1-cyanopyrrolidin-3-yl)-5-(3-ethylphenyl)oxazole-2-carboxamide] had a pIC50 of 8.40.

`N#CN1C[C@H](NC(=O)c2noc(-c3cc(OC(F)(F)F)ccc3C3CC3)n2)C[C@H]1Cn1ccnn1` [Example 51, N-((3R,5S)-5-((1H-1,2,3-Triazol-1-yl)methyl)-1-cyanopyrrolidin-3-yl)-5-(2-cyclopropyl-5-(trifluoromethoxy)phenyl)-1,2,4-oxadiazole-3-carboxamide] showed a pIC50 of 7.85.

In turn, `N#Cc1ccc(C2CC2)c(-c2nnc(C(=O)N[C@@H]3C[C@@H](Cn4ccnn4)N(C#N)C3)o2)c1` [Example 14, N-((3R,5S)-5-((1H-1,2,3-Triazol-1-yl)methyl)-1-cyanopyrrolidin-3-yl)-5-(5-cyano-2-cyclopropylphenyl)-1,3,4-oxadiazole-2-carboxamide] gave a pIC50 of 8.40.

The compound `N#Cc1cccc(-c2cnc(C(=O)N[C@@H]3C[C@@H](Cn4cnnc4)N(C#N)C3)o2)c1` [Example 19, N-((3R,5S)-5-((4H-1,2,4-Triazol-4-yl)methyl)-1-cyanopyrrolidin-3-yl)-5-(3-cyanophenyl)oxazole-2-carboxamide] gave a pIC50 of 8.70.

Regarding `N#Cc1cnc(N2CCCC2)c(-c2nnc(C(=O)N[C@@H]3C[C@@H](Cn4ccnn4)N(C#N)C3)o2)c1` [Example 41, N-((3R,5S)-5-((1H-1,2,3-Triazol-1-yl)methyl)-1-cyanopyrrolidin-3-yl)-5-(5-cyano-2-(pyrrolidin-1-yl)pyridin-3-yl)-1,3,4-oxadiazole-2-carboxamide], the pIC50 was 8.05.

For the compound `N#CN1C[C@H](NC(=O)N2CCC(c3cccc(OC(F)(F)F)c3)C2)C[C@H]1Cn1cccn1` (stereo partly drawn) [Example 36, N-((3R,5S)-5-((1H-Pyrazol-1-yl)methyl)-1-cyanopyrrolidin-3-yl)-3-(3-(trifluoromethoxy)phenyl) pyrrolidine-1-carboxamide], the pIC50 is 7.00.

`Cc1ccnn1C[C@@H]1C[C@@H](NC(=O)c2ncc(-c3cccc(OC(F)(F)F)c3)o2)CN1C#N` [Example 29, N-((3R,5S)-1-Cyano-5-((5-methyl-1H-pyrazol-1-yl)methyl)pyrrolidin-3-yl)-5-(3-(trifluoromethoxy)phenyl)oxazole-2-carboxamide]: the pIC50 was 7.26.
